Where two headings read alike, the source gives them in different places. Ends that are not written are not given here.
Tests used:
aminopeptidase N (APN) = assay: In vitro aminopeptidase N (APN) activity assay with Ala-MCA in HUVECs; assay type: cell-based, human; settings: 100 μM Ala-MCA in PBS, curcumin 50 µM, 24 h, fluorescence λex 360 nm, λem 460 nm
Description: HUVEC cells were plated in a 96-well plate at a density of 5000 cells per well in 200 μL complete ECGM V2 media per well. After culturing for 24 h, cells were washed with 1X PBS two times. […] The release of fluorescent product 7-amino-4-methylcoumarin in the media was monitored on the plate reader (BioTek Cytation3 imaging reader) with λex of 360 nm and peak λem of 460 nm.

HUVECs [1] = system: HUVECs; design: method as in earlier work; settings: curcumin up to 100 µM, up to 72 h; ref Kumar et al. 1998; Do et al. 2022; Ouyang et al. 2019; Hosseini et al. 2019; Yuan et al. 2022; cited from earlier work
Excerpt: page 17: Reviewer #3 Specific Comment 1. I have one very major concern that should be experimentally addressed.

[2] = system: HUVECs (cell surface laminin receptor integrin); assay: In vitro study of biological function using fluorescent probe: rhodamine B-labeled peptide attachment to HUVECs (CTCF); assay type: cell-based, human
Description: HUVECs were plated at a density of 0.1 million cells per well in a 24-well plate with 0.5 mL complete ECGM per well and cultured for 24 h, followed by washing with 1× PBS three times and the addition of 950 μL serum-free ECGM per well. Rhodamine B labeled peptide solution (50 μL in serum-free ECGM, 1 mM) was mixed with 0.05% trypsin (5 μL). The mixed solution was then added to each well for a total volume of 1005 μL. Cells were incubated with the mixed solution for various time periods. At different time points (1 h up to 30 h), the media was removed, and cells were washed with PBS three times. Fresh PBS (500 μL) was added to the wells, and the plate was visualized by bright-field and fluorescence microscopy (Nikon Eclipse Ti−U) with TRITC filter set. The magnification was 20×. Corrected total cell fluorescence (CTCF) intensity was estimated using the equation CTCF = integrated density − (area of selected cell) × (mean fluorescence of background). A rectangular drawing/selection tool in ImageJ was used to select a desired region with fluorescence, and its integrated density and area were measured. […] Cell counts were 30 for each group from three separate wells.
The corrected total cell fluorescence (CTCF) was calculated as follows:1 2 CTCF = integrated density – (area of selected cell × mean fluorescence of background readings)
Supplementary Table 1. Statistics Data of CTCF at each timepoint measured from fluorescence images of Ac-E5G2KSYIGR-KRB with trypsin, and control peptides mentioned […]
Comparison Mean q P value […]
Group comparisons are indicated as determined by a one -way analysis of variance (ANOVA) with a Student−Newman−Keuls comparisons post hoc test. *** indicates p < 0.001, ** indicates p < 0.01, * indicates p < 0.05, and ns indicates no significance among indicated

trypsin [3] = assay: trypsin (0.08 wt% total) in PBS buffer; settings: 37 °C
trypsin [4] = molecular target: T1, trypsin (Sus scrofa, UniProt P00761); assay: Trypsin cleavage of switch peptide followed by MALDI-TOF MS; assay type: biochemical
T1 construct: purchased VWR (Radnor, PA, USA)
Description: We followed the kinetics of Lys residue cleavage by trypsin and functional peptide formation using MALDI-TOF mass spectrometry (MS). We tracked disappearance of the switch peptide peak and evolution of the intermediate or functional peptide peak (SYIGR or Ac-YIGSR; both have the same exact mass) after treatment with trypsin. […] After 3 h, the intensity of both signals was similar, and after 24 h the switch peptide signal disappeared completely, while the intermediate/functional peptide peak became dominant, indicating near-complete conversion.
Addition of the KRB unit created a new potential cleavage site for trypsin at the C-terminal side of the Arg residue (i.e., the R–KRB peptide bond). To ensure the desired response still occurred, i.e., cleavage of the K–SYIG peptide bond to remove the N-terminal Lys residue, we designed an experiment to follow the transformation of KSYIGRK as a representative peptide that contains two potential cleavage points, the desired K–SYIG peptide bond and the undesired R–K peptide bond. We treated this peptide with trypsin and followed bond cleavage at these two sites using MALDI-TOF MS. […] However, we envisioned that this undesired cleavage would not be a problem in cell studies because it would simply generate a KRB species that would be removed in washing steps.
Switch peptide solution (100 μL, 5 mg/mL in PBS) was mixed with 20 μL of a trypsin solution (0.25%) in a vial and placed at 37 °C in an incubator. Aliquots (2 μL) from each reaction solution were withdrawn at specific times, and trypsin was deactivated immediately by the addition of acetic acid (0.3 μL, 1 M in distilled water). Samples (0.8 μL) were then mixed with a matrix solution (0.8 μL, 0.02 M α-cyano-4-hydroxycinnamic acid dissolved in acetonitrile/methanol/water (1:1:1) with 0.1% formic acid) and deposited on a MALDI plate (Opti-TOF 384 Well, 123 × 81 mm). Samples were analyzed using a matrix-assisted laser desorption ionization−tandem time-of-flight mass spectrometer (4800 MALDI TOF/TOF, AB Sciex).

HUVECs [5] = assay: Cell viability assay (CCK-8); assay type: cell-based, human
Description: HUVECs (ATCC catalog number PCS-100-010) were plated in a 96-well plate at a density of 5000 cells per well in 200 μL complete ECGM per well. After culturing for 24 h, the media was discarded and the cells were washed with 1X PBS three times before […] serum-containing ECGM media was added. Next, varying amounts of peptide stock solution (4 mM in PBS) were diluted to […] with PBS and added to the wells to make the final peptide concentrations ranging from 10 to 200 µM. After incubation for 24 h, cells were washed three times with PBS and then treated with serum-free ECGM media (100 μL). Next, 10 μL cell counting kit 8 solution (CCK-8, Dojindo, Rockville, MD) was added to each well. After incubation for another 3 h to allow for development of the CCK8 dye, absorbance was recorded at 450 and 750 nm using a BioTek Synergy Mx plate reader (BioTek, Winooski, VT). Worked-up data (absorbance at 750 nm subtracted from absorbance at 450 nm) were graphed using GraphPad InStat, version 3 (GraphPad Software, Inc., San Diego, CA). Mean values are reported together with the standard deviation (SD) representing the combination of 3 independent experimental runs with five replicates per experiment.

CD29 (integrin β1) = assay: Immunofluorescence co-localization with CD29; assay type: cell-based, human; settings: HUVECs, 50 µM peptide, 24 h, fixed, confocal microscopy, done once
Description: HUVEC cells were seeded in an 8-chamber glass slide (Lab-Tek Chamber Slide) at a density of 30,000 cells per well in 0.4 mL complete ECGM media per well. After culturing for 24 h, cells were washed twice with 1× PBS. The cells were then incubated with 395 μL of serum-free ECGM media […] in the following groups: Blank (5 μL PBS), and 4 mM Ac-YIGSR-KRB (5 μL in PBS, final concentration 50 µM). After incubation for 24 h, the media was removed, and cells were washed with PBS three times. Cultured cells were then fixed in 10% formalin for 5 min, then washed three times with PBS for 5 min each. Slides were blocked for 1 h with 2% cold water fish skin gelatin (Sigma, Inc., St. Louis, MO, USA) and 0.2% triton-X100 solution. Slides were then incubated in conjugated primary antibody diluted in blocking solution overnight at room temperature, then washed with PBS five times for 10 min each. The antibody used was FITC Armenian hamster anti-mouse/rat CD29 at a 1:50 dilution (Biolegend, San Diego, CA, USA; Catalog number 102205, clone HMbeta1-1), validated by the manufacturer by immunofluorescent staining with flow cytometric analysis. Finally, slides were mounted with DAPI Fluoromount-G (SouthernBiotech, Birmingham, AL, USA). Images were then obtained using a Nikon A1 Confocal Microscope with NIS Elements Imaging Software (Melville, New York, USA).

trypsin [6] = assay: trypsin solution (0.25%) mixed with switch peptide solution in PBS; settings: 37 °C, up to 24 h
[7] = switch peptide 5 mg/mL in PBS (100 μL) + 20 μL 0.25% trypsin, 37 °C

T1 sequence (P00761 9-231): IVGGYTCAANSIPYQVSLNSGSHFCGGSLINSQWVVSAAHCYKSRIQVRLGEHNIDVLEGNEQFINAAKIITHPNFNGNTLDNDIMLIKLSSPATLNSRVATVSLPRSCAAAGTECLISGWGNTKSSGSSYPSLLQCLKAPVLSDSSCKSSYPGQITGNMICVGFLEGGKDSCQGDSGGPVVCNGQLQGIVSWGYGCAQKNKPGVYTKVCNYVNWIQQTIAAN

COc1cc(/C=C/C(=O)CC(=O)/C=C/c2ccc(O)c(OC)c2)ccc1O [curcumin]
APN activity remaining with inhibitor (aminopeptidase N (APN)): ~ 25% | viability of HUVECs (HUVECs [1]): > 80%

Ac-E5G2KSYIGRKRB (lariat or depsi) [Ac-E5G2KSYIGR-KRB, switch peptide labeled with the fluorescent probe rhodamine B]
fluorescence signal on HUVECs after washing (in words) ([2]; with trypsin, 1 h): negligible fluorescent signal | fluorescence signal on HUVECs after washing (in words) ([2]; with trypsin, 30 h): strong signal | fluorescence signal on HUVECs after washing (in words) ([2]; without trypsin, 30 h): no fluorescence signal

Ac-KSYIGRK
cleaved bond (trypsin [3]): K-S and R-K

Ac-KSYIGRK (also: lariat or depsi (positions not given here))
trypsin cleavage at K–SYIG versus R–K peptide bond (trypsin [4]; trypsin, cleavage at either site but not both simultaneously): approximately the same rate

Ac-KYIGR-KRB [fluorescence labeled peptide with YIG on the side chain, cannot undergo a switch; negative control]
fluorescence signal on HUVECs after washing (in words) ([2]; with trypsin, 30 h): no fluorescence | fluorescence signal on HUVECs after washing (in words) ([2]; without trypsin, 30 h): no fluorescence

Ac-YIGSR [functional cell-adhesive pentapeptide derived from the ECM protein laminin, reference compound]
cytotoxicity in cell viability studies (HUVECs [5]; HUVECs, CCK-8, peptide up to 200 µM, 24 h): no cytotoxicity

Ac-YIGSR-KRB [rhodamine B-labeled functional peptide, positive control]
fluorescence signal on HUVECs after washing (in words) ([2]; without trypsin, 30 h): strong fluorescence | co-localization of rhodamine B-labeled peptide with anti-CD29-FITC stain (CD29 (integrin β1)): colocalized with integrin β1

KSYIGR (also: lariat or depsi (positions not given here)) [non-functional depsipeptide; SYIG = Ser residue esterified with Ac-YIG; trypsin removes N-terminal Lys]
time after which switch peptide signal (m/z = 764) started to decrease (trypsin [4]; [7]): 1 h | time at which intensity of switch peptide and intermediate/functional peptide signals was similar (trypsin [4]; [7]): 3 h | time at which switch peptide signal disappeared completely (near-complete conversion) (trypsin [4]; [7]): 24 h

KSYIGR, where the SYIG unit indicates a Ser residue esterified with the Ac-YIG peptide sequence (Ac = acetyl)
cleaved bond (trypsin [6]): Lys-Ser, 1 h

B1: trypsin: enzyme that cleaves peptide bonds on the C-terminal side of positively charged residues (protein, UniProt P00760 24-246, looked up)
Serine protease 1: IVGGYTCGANTVPYQVSLNSGYHFCGGSLINSQWVVSAAHCYKSGIQVRLGEDNINVVEGNEQFISASKSIVHPSYNSNTLNNDIMLIKLKSAASLNSRVASISLPTSCASAGTQCLISGWGNTKSSGTSYPDVLKCLKAPILSDSSCKSAYPGQITSNMFCAGYLEGGKDSCQGDSGGPVVCSGKLQGIVSWGSGCAQKNKPGVYTKVCNYVSWIKQTIASN
cytotoxicity in cell viability studies (HUVECs [5]): no cytotoxicity

Source: publication PMC10279755 (Nature Communications, 2023)
